{
  "source": "patent US20260217767A1",
  "about": "“NOVEL A4B7 THIOETHER PEPTIDE DIMER ANTAGONISTS” (Protagonist Therapeutics, Inc., priority 2014, published 2026)",
  "note": "*1 amine or outer side, *2 acyl side, *3 side chain or, on linkers, in order; H or OH if unused. Where a SMILES comes first, the peptide text is derived from it. Bridges are numbered along the chain shown (N, C = ends). [ ]: non-standard residue; d: D form. Phe(4-tBu) = CC(C)(C)c1ccc(C[C@H](N)C(=O)O)cc1; NMeR = CN[C@@H](CCCNC(=N)N)C(=O)O; β3hE = N[C@@H](CCC(=O)O)CC(=O)O; X1 = O=C(c1ccccc1C[*:2])[*:1]; Pen = CC(C)(S)[C@H](N)C(=O)O",
  "data": [
    {"biological_target": "T1, RPMI 8866 cells (Homo sapiens, UniProt P13612+P26010)", "T1 sequence (P13612 34-1032)": "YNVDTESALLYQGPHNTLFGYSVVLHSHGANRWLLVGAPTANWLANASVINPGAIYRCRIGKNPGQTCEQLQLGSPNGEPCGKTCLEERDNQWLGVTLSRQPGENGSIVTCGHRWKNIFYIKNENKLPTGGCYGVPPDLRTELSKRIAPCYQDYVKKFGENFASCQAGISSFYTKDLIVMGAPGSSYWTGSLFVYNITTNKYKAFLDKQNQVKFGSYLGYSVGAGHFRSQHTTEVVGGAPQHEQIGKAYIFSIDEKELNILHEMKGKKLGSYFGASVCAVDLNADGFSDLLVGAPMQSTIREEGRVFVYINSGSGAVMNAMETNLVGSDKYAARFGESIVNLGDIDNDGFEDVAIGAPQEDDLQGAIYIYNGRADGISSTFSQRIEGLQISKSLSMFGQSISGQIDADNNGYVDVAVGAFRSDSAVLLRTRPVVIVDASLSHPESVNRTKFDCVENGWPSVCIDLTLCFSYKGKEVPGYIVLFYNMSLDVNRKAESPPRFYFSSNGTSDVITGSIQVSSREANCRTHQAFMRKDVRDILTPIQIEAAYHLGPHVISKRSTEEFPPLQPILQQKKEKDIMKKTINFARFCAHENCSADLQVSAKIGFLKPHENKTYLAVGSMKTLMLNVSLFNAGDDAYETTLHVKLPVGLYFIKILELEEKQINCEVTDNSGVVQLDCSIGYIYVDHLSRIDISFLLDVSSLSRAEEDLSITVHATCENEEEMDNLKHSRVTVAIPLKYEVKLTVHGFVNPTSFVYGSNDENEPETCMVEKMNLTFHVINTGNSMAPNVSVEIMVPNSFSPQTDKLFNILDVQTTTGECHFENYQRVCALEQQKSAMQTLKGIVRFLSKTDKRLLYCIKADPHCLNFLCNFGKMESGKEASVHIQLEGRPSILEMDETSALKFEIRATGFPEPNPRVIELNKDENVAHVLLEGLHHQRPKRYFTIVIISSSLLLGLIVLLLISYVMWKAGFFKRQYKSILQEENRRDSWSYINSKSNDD", "T1 sequence (P26010 20-798)": "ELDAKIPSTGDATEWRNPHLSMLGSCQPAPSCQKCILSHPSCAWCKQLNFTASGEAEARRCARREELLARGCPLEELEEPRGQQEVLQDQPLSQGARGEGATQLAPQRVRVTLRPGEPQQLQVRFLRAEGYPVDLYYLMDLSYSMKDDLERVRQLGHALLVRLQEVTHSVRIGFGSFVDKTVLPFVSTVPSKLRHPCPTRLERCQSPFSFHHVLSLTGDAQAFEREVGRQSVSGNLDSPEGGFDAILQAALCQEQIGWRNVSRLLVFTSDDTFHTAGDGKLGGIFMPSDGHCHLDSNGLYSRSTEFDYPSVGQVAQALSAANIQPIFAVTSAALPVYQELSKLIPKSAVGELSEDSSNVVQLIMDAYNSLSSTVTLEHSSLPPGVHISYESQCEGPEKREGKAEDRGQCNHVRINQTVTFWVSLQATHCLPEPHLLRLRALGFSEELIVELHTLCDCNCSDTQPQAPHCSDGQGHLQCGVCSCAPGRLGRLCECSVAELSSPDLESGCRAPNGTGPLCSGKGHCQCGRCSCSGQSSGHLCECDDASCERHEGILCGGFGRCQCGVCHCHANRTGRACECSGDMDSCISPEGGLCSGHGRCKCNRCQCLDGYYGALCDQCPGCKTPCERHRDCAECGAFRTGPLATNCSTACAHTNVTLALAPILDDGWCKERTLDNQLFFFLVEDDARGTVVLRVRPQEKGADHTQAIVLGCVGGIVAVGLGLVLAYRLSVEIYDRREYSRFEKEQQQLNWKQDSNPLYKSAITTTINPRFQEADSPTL", "assay": "α4β7-MAdCAM Cell Adhesion Assay", "type": "cell-based", "conditions": "thioether monomer peptides, Table 6; read-out: Cell-Adhesion A4B7", "procedure": "(§1) α4β7-MAdCAM Cell Adhesion Assay\n(§2) RPMI 8866 cells (Sigma #95041316) were cultured in RPMI 1640 HEPES medium (Invitrogen #22400-089) supplemented with 10% serum (Fetal Bovine Serum, Invitrogen #16140-071), 1 mM sodium pyruvate (Invitrogen #11360-070), 2 mM L-glutamine (Invitrogen #25030-081) and Penicillin-Streptomycin (Invitrogen #15140-122) at 100 units of penicillin and 100 μg of streptomycin per ml. The cells were washed two times in DMEM medium (ATCC #30-2002) supplemented with 0.1% BSA, 10 mM HEPES pH 7 and 1 mM MnCl2. The cells were re-suspended in supplemented DMEM medium at a density of 4×10^6 cells/ml.\n(§3) A Nunc MaxiSorp plate was coated with rh MAdCAM-1/Fc Chimera (R&D #6065-MC) at 200 ng per well in 50 ul per well in 1×PBS and incubated at 4° C. overnight. The solution was then removed by shaking, blocked with 250 ul per well PBS containing 1% BSA, and incubated at 37° C. for 1 hr. The solution was removed by shaking. Peptides were diluted by serial dilution in a final volume of 50 ul per well (2× concentration). To each well, 50 ul of cells (200,000 cells) were added and the plate was incubated at 37° C., 5% CO2 for 30-45 min to allow cell adhesion. The wells were washed manually three times (100 ul per wash) with supplemented DMEM. After the final wash, 100 μl/well of supplemented DMEM and 10 ul/well of MTT reagent (ATTC cat #30-1010K) were added. The plate was incubated at 37° C., 5% CO2 for 2-3 hrs until a purple precipitate is visible. 100 ul of Detergent Reagent (ATTC cat #30-1010K) was added to each well. The plate was covered from the light, wrapped in Parafilm to prevent evaporation, and left overnight at room temperature in the dark. The plate was shaken for 5 min and the absorbance at 570 nm is measured. To calculate the dose response, the absorbance value of control wells not containing cells was subtracted from each test well.", "units": {"IC50": "nM"}, "values": [
      {"compound": "CC(C)C[C@@H]1NC(=O)[C@H]([C@@H](C)O)NC(=O)[C@H](CC(=O)O)NC(=O)[C@H](CO)NC(=O)[C@H](CCCNC(=N)N)N(C)C(=O)c2cccc(c2)CSC(C)(C)[C@@H](C(=O)N[C@@H](Cc2c[nH]c3ccccc23)C(=O)N[C@H](CCC(=O)O)C(=O)N[C@H](CCCCN)C(N)=O)NC1=O", "note": "[compound 111] (HELM PEPTIDE1{[meR].S.D.T.L.[Pen].W.[dE].[dK].[am]}|CHEM1{[O=C(c1cccc(C[*:2])c1)[*:1]]}$PEPTIDE1,CHEM1,1:R1-1:R1|PEPTIDE1,CHEM1,6:R3-1:R2$$$V2.0)", "IC50": "> 1000"},
      {"compound": "CC(C)C[C@@H]1NC(=O)[C@H]([C@@H](C)O)NC(=O)[C@H](CC(=O)O)NC(=O)[C@H](CO)NC(=O)[C@H](CCCNC(=N)N)N(C)C(=O)c2ccc(cc2)CSC(C)(C)[C@@H](C(=O)N[C@@H](Cc2c[nH]c3ccccc23)C(=O)N[C@H](CCC(=O)O)C(=O)N[C@H](CCCCN)C(N)=O)NC1=O", "note": "[compound 112] (HELM PEPTIDE1{[meR].S.D.T.L.[Pen].W.[dE].[dK].[am]}|CHEM1{[O=C(c1ccc(C[*:2])cc1)[*:1]]}$PEPTIDE1,CHEM1,1:R1-1:R1|PEPTIDE1,CHEM1,6:R3-1:R2$$$V2.0)", "IC50": "> 1000"},
      {"compound": "CC(C)C[C@@H]1NC(=O)[C@H]([C@@H](C)O)NC(=O)[C@H](CC(=O)O)NC(=O)[C@H](CO)NC(=O)[C@H](CCCNC(=N)N)N(C)C(=O)c2ccccc2CSC[C@@H](C(=O)N2Cc3ccccc3C[C@H]2C(=O)N[C@H](CCCCN)C(=O)O)NC1=O", "note": "[compound 118] (HELM PEPTIDE1{[meR].S.D.T.L.C.[Tic].[dK]}|CHEM1{[O=C(c1ccccc1C[*:2])[*:1]]}$PEPTIDE1,CHEM1,1:R1-1:R1|PEPTIDE1,CHEM1,6:R3-1:R2$$$V2.0)", "IC50": "100 to 1000"},
      {"compound": "CC(C)C[C@@H]1NC(=O)[C@H]([C@@H](C)O)NC(=O)[C@H](CC(=O)O)NC(=O)[C@H](C)NC(=O)[C@H](CCCNC(=N)N)N(C)C(=O)c2ccccc2CSC(C)(C)[C@@H](C(=O)N[C@@H](Cc2ccc(C(C)(C)C)cc2)C(=O)N[C@@H](CCC(=O)O)CC(N)=O)NC1=O", "note": "[compound 139] ([NMeR]ADTL[Pen][Phe(4-tBu)][β3hE]-NH2; linker N-6 via X1)", "IC50": "25 to 100"}
    ]},
    {"biological_target": "T1, RPMI 8866 cells", "assay": "α4β7-MAdCAM Cell Adhesion Assay", "type": "cell-based", "conditions": "thioether peptide dimers, Table 7; read-out: Cell-Adhesion A4B7", "procedure": "as §1, §2, §3", "units": {"IC50": "nM"}, "values": [
      {"compound": "180 (RSDTLCXEK; not fully specified; CROSSLINK - N-term 2-Benzyl with a thioether bond between the N-term and the residue at position 6; MOD_RES 1 N-Methyl Arginine; SITE 7 aminoindan-2-carboxylic acid; SITE 8 D-Glu; SITE 9 D-Lys; SITE 9 C-term NH2) [compound 180]", "IC50": "100 to 1000"},
      {"compound": "181 (RSDTLXWEK; not fully specified; CROSSLINK - N-term 2-Benzyl with a thioether bond between the N-term and the residue at position 6; MOD_RES 1 N-Methyl Arginine; SITE 6 D-Penicillamine; SITE 9 D-Lys; SITE 9 C-term NH2) [compound 181]", "IC50": "> 1000"},
      {"compound": "221 (RSDTLCXK; not fully specified; CROSSLINK - N-term 2-Benzyl with a thioether bond between the N-term and the residue at position 6; MOD_RES 1 N-Methyl Arginine; SITE 7 (3S-)-1,2,3,4-tetrahydroisoquinoline-3-carboxylic acid; SITE 8 D-Lys; SITE 8 C-term OH) [compound 221]", "IC50": "25 to 100"},
      {"compound": "CC(C)C[C@@H]1NC(=O)[C@H]([C@@H](C)O)NC(=O)[C@H](CC(=O)O)NC(=O)[C@H](CO)NC(=O)[C@H](CCCNC(=N)N)N(C)C(=O)C(C)SC(C)(C)[C@@H](C(=O)N[C@@H](Cc2c[nH]c3ccccc23)C(=O)N[C@H](CCCCN)C(N)=O)NC1=O", "note": "(single isomer, unassigned) [compound 148]", "IC50": "> 1000"},
      {"compound": "CC(C)C[C@@H]1NC(=O)[C@H]([C@@H](C)O)NC(=O)[C@H](CC(=O)O)NC(=O)[C@H](CO)NC(=O)[C@H](CCCNC(=N)N)N(C)C(=O)c2ccccc2CSC[C@@H](C(=O)N[C@@H](Cc2c[nH]c3ccccc23)C(=O)N[C@@H](CCC(=O)O)C(=O)N[C@H](CCCCN)C(N)=O)NC1=O", "note": "[compound 145] (HELM PEPTIDE1{[meR].S.D.T.L.C.W.E.[dK].[am]}|CHEM1{[O=C(c1ccccc1C[*:2])[*:1]]}$PEPTIDE1,CHEM1,1:R1-1:R1|PEPTIDE1,CHEM1,6:R3-1:R2$$$V2.0)", "IC50": "25 to 100"},
      {"compound": "CC(C)C[C@@H]1NC(=O)[C@H]([C@@H](C)O)NC(=O)[C@H](CC(=O)O)NC(=O)[C@H](CO)NC(=O)[C@H](CCCNC(=N)N)N(C)C(=O)CSC(C)(C)[C@@H](C(=O)N[C@@H](Cc2c[nH]c3ccccc23)C(=O)N[C@H](CCCCN)C(N)=O)NC1=O", "note": "[compound 147]", "IC50": "> 1000"},
      {"compound": "CC(C)C[C@@H]1NC(=O)[C@H]([C@@H](C)O)NC(=O)[C@H](CC(=O)O)NC(=O)[C@H](CO)NC(=O)[C@H](CCCNC(=N)N)N(C)C(=O)c2ccccc2CSC[C@@H](C(=O)N[C@H](Cc2ccccc2)C(=O)N[C@@H](CCC(=O)O)C(=O)N[C@H](CCCCN)C(N)=O)NC1=O", "note": "[compound 186] (HELM PEPTIDE1{[meR].S.D.T.L.C.[dF].E.[dK].[am]}|CHEM1{[O=C(c1ccccc1C[*:2])[*:1]]}$PEPTIDE1,CHEM1,1:R1-1:R1|PEPTIDE1,CHEM1,6:R3-1:R2$$$V2.0)", "IC50": "25 to 100"},
      {"compound": "CC(C)C[C@@H]1NC(=O)[C@H]([C@@H](C)O)NC(=O)[C@H](CC(=O)O)NC(=O)[C@H](CO)NC(=O)[C@H](CCCNC(=N)N)N(C)C(=O)c2ccccc2CSC[C@@H](C(=O)N[C@H](Cc2ccccc2)C(=O)N[C@H](CCC(=O)O)C(=O)N[C@H](CCCCN)C(N)=O)NC1=O", "note": "[compound 187] (HELM PEPTIDE1{[meR].S.D.T.L.C.[dF].[dE].[dK].[am]}|CHEM1{[O=C(c1ccccc1C[*:2])[*:1]]}$PEPTIDE1,CHEM1,1:R1-1:R1|PEPTIDE1,CHEM1,6:R3-1:R2$$$V2.0)", "IC50": "25 to 100"}
    ]}
  ]
}
